Measured values from patent publication US10703764B2, “Benzopiperazine compositions as BET bromodomain inhibitors” (FORMA Therapeutics, Inc., priority 2013, dated 2020).

Columns and labels:
BRD4 BD1 = target: T1, BRD4 BD1 (Homo sapiens, UniProt O60885); test: AlphaScreen binding assay, BRD4 Bromodomain 1
T1 construct: made in house
Procedure, shortened: (§1)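 Compound dilution series were mixed with His-tagged BRD4 bromodomain and biotinylated tetra-acetylated H4 (1-21) peptide at pH 7.3 (BD1 and peptide at 50 nM, BD2 and peptide at 100 nM). Donor and acceptor beads were then added, and plates were equilibrated at least 1 h before reading. IC50 values were fitted with a four-parameter logistic model.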

BRD4 BD2 = target: T2, BRD4 BD2 (Homo sapiens, UniProt O60885); test: AlphaScreen binding assay, BRD4 Bromodomain 2
T2 construct: made in house
Procedure, shortened: as §1

In the case of COC(=O)N1c2ccc(-c3ccc(C4(O)COC4)cc3)cc2N(C(=O)C2CC2)C[C@@H]1C [Example I-459], the IC50 (BRD4 BD1) is reported as 1 to 10 µM and the IC50 (BRD4 BD2) is reported as 50 to 500 nM.
Work on C[C@H]1CN(C(=O)c2ccco2)c2cc(-c3ccc(S(C)(=O)=O)cc3)ccc2N1C(=O)C1CCC1 [Example I-374] yielded an IC50 (BRD4 BD1) of 1 to 10 µM and an IC50 (BRD4 BD2) greater than 500 nM.
CC(=O)N1c2ccc(-c3cnn(C4COC4)c3)cc2N(C(=O)OCC2CC2(F)F)C[C@@H]1C (stereo partly drawn) [Example I-75, (3S)-(2,2-difluorocyclopropyl)methyl 4-acetyl-3-methyl-7-(1-(oxetan-3-yl)-1H-pyrazol-4-yl)-3,4-dihydroquinoxaline-1(2H)-carboxylate] showed an IC50 (BRD4 BD1) of 1 to 10 µM and an IC50 (BRD4 BD2) greater than 500 nM.
With CC(=O)N1c2ccc(Oc3ccccc3)nc2N(C(=O)C2CC2)C[C@@H]1C [Example I-97, (S)-1-(4-(cyclopropanecarbonyl)-2-methyl-6-phenoxy-3,4-dihydropyrido[2,3-b]pyrazin-1(2H)-yl)ethanone] the IC50 (BRD4 BD1) was greater than 10 µM and the IC50 (BRD4 BD2) was greater than 500 nM.
In the case of CNC(=O)Cn1cc(-c2ccc3c(c2)N(C(=O)C2CC2)C[C@H](C)N3C(C)=O)cn1 [Example I-132, (S)-2-(4-(1-acetyl-4-(cyclopropanecarbonyl)-2-methyl-1,2,3,4-tetrahydroquinoxalin-6-yl)-1H-pyrazol-1-yl)-N-methylacetamide], the IC50 (BRD4 BD1) is reported as 1 to 10 µM and the IC50 (BRD4 BD2) is reported as 50 to 500 nM.
Work on CC(=O)N1c2ccccc2N(S(=O)(=O)c2cn(C)cn2)C[C@@H]1C [Example I-961] yielded an IC50 (BRD4 BD1) greater than 10 µM and an IC50 (BRD4 BD2) greater than 500 nM.
With CCCn1cc(-c2ccc3c(c2)N(C(=O)c2ccco2)C[C@H](C)N3C(=O)C(F)(F)F)cn1 [Example I-363] the IC50 (BRD4 BD1) was 1 to 10 µM and the IC50 (BRD4 BD2) was 50 to 500 nM.
COC(=O)N1C[C@H](C)N(C(C)=O)c2ccc(-c3ccc(S(C)(=O)=O)cc3)cc21 [Example I-235] gave an IC50 (BRD4 BD1) of 1 to 10 µM and an IC50 (BRD4 BD2) of 50 to 500 nM.
Compound CC(=O)N1c2ccc(-c3ccc(S(C)(=O)=O)cc3)cc2N(C(=O)NC2CCCC2)C[C@@H]1C [Example I-968] has an IC50 (BRD4 BD1) of 1 to 10 µM and an IC50 (BRD4 BD2) of 50 to 500 nM.
CC(=O)N1c2ccc(-c3ccc(N4CCCS4(=O)=O)cc3)cc2N(C(=O)c2ccco2)C[C@@H]1C [Example I-424] gave an IC50 (BRD4 BD1) of 0.1 to 1 µM and an IC50 (BRD4 BD2) of less than 50 nM.
For CC(=O)N1c2ccc(-c3ccc(S(C)(=O)=O)cc3)cc2N(C(=O)NCc2ccc(C)cc2)C[C@@H]1C [Example I-976], the IC50 (BRD4 BD1) was greater than 10 µM and the IC50 (BRD4 BD2) was greater than 500 nM.
CC(=O)N1c2ccccc2N(C(=O)CSc2ccccc2)C[C@@H]1C [Example I-727] gave an IC50 (BRD4 BD1) greater than 10 µM and an IC50 (BRD4 BD2) greater than 500 nM.
CC(=O)N1c2ccc(-c3cnoc3)cc2N(C(=O)c2ccco2)C[C@@H]1C [Example I-390] gave an IC50 (BRD4 BD1) of 1 to 10 µM and an IC50 (BRD4 BD2) of 50 to 500 nM.
With CC(=O)N1c2ccccc2N(S(=O)(=O)c2ccn(C)n2)C[C@@H]1C [Example I-933] the IC50 (BRD4 BD1) was greater than 10 µM and the IC50 (BRD4 BD2) was greater than 500 nM.
CC(=O)N1c2ccc(-c3ccc(S(C)(=O)=O)cc3)cc2N(C(=O)OC2COC2)C[C@@H]1C [Example I-497] gave an IC50 (BRD4 BD1) of 1 to 10 µM and an IC50 (BRD4 BD2) greater than 500 nM.
With CC(=O)N1c2ccc(-c3ccc(F)c(C(=O)NC(C)C)c3)cc2N(C(=O)c2ccco2)C[C@@H]1C [Example I-829] the IC50 (BRD4 BD1) was 1 to 10 µM and the IC50 (BRD4 BD2) was less than 50 nM.
CC(=O)N1c2ccccc2N(S(=O)(=O)c2ccc(C(F)(F)F)nc2)C[C@@H]1C [Example I-951] showed an IC50 (BRD4 BD1) greater than 10 µM and an IC50 (BRD4 BD2) greater than 500 nM.
CC(=O)N1c2ccccc2N(C(=O)c2cnn3c2OCCC3)C[C@@H]1C [Example I-773] showed an IC50 (BRD4 BD1) greater than 10 µM and an IC50 (BRD4 BD2) greater than 500 nM.
For CC(=O)N1c2ccccc2N(C(=O)c2ccc3cc[nH]c3c2)CC1C (stereo not drawn) [Example I-760], the IC50 (BRD4 BD1) was greater than 10 µM and the IC50 (BRD4 BD2) was greater than 500 nM.
In the case of CC(=O)N1c2ccc(-c3ccc4cn(C)nc4c3)cc2N(C(=O)c2ccco2)C[C@@H]1C [Example I-840], the IC50 (BRD4 BD1) is reported as 1 to 10 µM and the IC50 (BRD4 BD2) is reported as 50 to 500 nM.
With CC(=O)N1c2ccccc2N(C(=O)CN2CCS(=O)(=O)CC2)C[C@@H]1C [Example I-767] the IC50 (BRD4 BD1) was greater than 10 µM and the IC50 (BRD4 BD2) was greater than 500 nM.
COC(=O)N1c2ccc(-c3cnn(CC(=O)N4CCCCC4)c3)cc2N(C(=O)OC(C)C)C[C@@H]1C [Example I-629] gave an IC50 (BRD4 BD1) of 1 to 10 µM and an IC50 (BRD4 BD2) of 50 to 500 nM.
Work on CC(=O)N1c2ccccc2N(S(=O)(=O)c2ccc(OC(F)(F)F)cc2)C[C@@H]1C [Example I-939] yielded an IC50 (BRD4 BD1) greater than 10 µM and an IC50 (BRD4 BD2) greater than 500 nM.
CC(=O)N1c2ccccc2N(Cc2ccc(N3CCOCC3)nc2)C[C@@H]1C [Example I-922] was tested, and the IC50 (BRD4 BD1) was greater than 10 µM and the IC50 (BRD4 BD2) was greater than 500 nM.
In the case of CC(=O)N1c2ccc(-c3cnn(C4COC4)c3)cc2N(C(=O)OCC2COC2)C[C@@H]1C [Example I-64, (S)-oxetan-3-ylmethyl 4-acetyl-3-methyl-7-(1-(oxetan-3-yl)-1H-pyrazol-4-yl)-3,4-dihydroquinoxaline-1(2H)-carboxylate], the IC50 (BRD4 BD1) is reported as 1 to 10 µM and the IC50 (BRD4 BD2) is reported as 50 to 500 nM.
In the case of CC(=O)N1c2ccc(-c3cnn(CC(C)(C)O)c3)cc2N(C(=O)C2CC2)C[C@@H]1C [Example I-343], the IC50 (BRD4 BD1) is reported as 1 to 10 µM and the IC50 (BRD4 BD2) is reported as 50 to 500 nM.
For COC(=O)N1c2ccc(-c3ccc(N(C)S(C)(=O)=O)cc3)cc2N(C(=O)Oc2ccccn2)C[C@@H]1C [Example I-1331], the IC50 (BRD4 BD1) was 1 to 10 µM and the IC50 (BRD4 BD2) was 50 to 500 nM.
Work on CC(C)OC(=O)N1C[C@H](C)N(C(=O)C2CC2)c2ccc(-c3cnn(CCNS(C)(=O)=O)c3)cc21 [Example I-613] yielded an IC50 (BRD4 BD1) of 1 to 10 µM and an IC50 (BRD4 BD2) greater than 500 nM.
With COC(=O)N1c2ccc(-c3cnn(CCS(C)(=O)=O)c3)cc2N(C(=O)Oc2ccccn2)C[C@@H]1C [Example I-1319] the IC50 (BRD4 BD1) was 1 to 10 µM and the IC50 (BRD4 BD2) was 50 to 500 nM.
Work on CC(=O)N1c2ccc(-c3cnn(C4COC4)c3)cc2N(C(=O)OCC(F)F)C[C@@H]1C [Example I-84, (S)-2,2-difluoroethyl 4-acetyl-3-methyl-7-(1-(oxetan-3-yl)-1H-pyrazol-4-yl)-3,4-dihydroquinoxaline-1(2H)-carboxylate] yielded an IC50 (BRD4 BD1) of 1 to 10 µM and an IC50 (BRD4 BD2) greater than 500 nM.
For CC(=O)N1c2ccc(-c3cccc4ccsc34)cc2N(C(=O)c2ccco2)C[C@@H]1C [Example I-873], the IC50 (BRD4 BD1) was 1 to 10 µM and the IC50 (BRD4 BD2) was greater than 500 nM.
C[C@H]1CN(c2nc3ccccc3o2)c2cc(-c3cnn(C4CC4)c3)ccc2N1C(=O)C1CC1 [Example I-92, (S)-(4-(benzo[d]oxazol-2-yl)-6-(1-cyclopropyl-1H-pyrazol-4-yl)-2-methyl-3,4-dihydroquinoxalin-1 (2H)-yl)(cyclopropyl)methanone] was tested, and the IC50 (BRD4 BD1) was 1 to 10 µM and the IC50 (BRD4 BD2) was 50 to 500 nM.
CCCn1cc(-c2cnc3c(c2)N(C(=O)c2ccco2)C[C@H](C)N3C(C)=O)cn1 [Example I-273] gave an IC50 (BRD4 BD1) of 1 to 10 µM and an IC50 (BRD4 BD2) greater than 500 nM.
Compound COC(=O)N1c2ccc(-c3cnn(C4CCNCC4)c3)cc2N(C(=O)Oc2cccnc2)C[C@@H]1C [Example I-1296] has an IC50 (BRD4 BD1) of 1 to 10 µM and an IC50 (BRD4 BD2) of 50 to 500 nM.
With CC(=O)N1c2ccccc2N(S(=O)(=O)c2cccnc2)C[C@@H]1C [Example I-934] the IC50 (BRD4 BD1) was greater than 10 µM and the IC50 (BRD4 BD2) was greater than 500 nM.
For CC(=O)N1c2ccccc2N(C(=O)c2cnc3ccccc3c2)C[C@@H]1C [Example I-752], the IC50 (BRD4 BD1) was greater than 10 µM and the IC50 (BRD4 BD2) was greater than 500 nM.
Compound CC(=O)N1c2ccc(-c3ccc(S(C)(=O)=O)cc3)cc2N(C(=O)c2oc3ccccc3c2-c2ccccc2)C[C@@H]1C [Example I-790] has an IC50 (BRD4 BD1) greater than 10 µM and an IC50 (BRD4 BD2) greater than 500 nM.
In the case of CC(=O)N1c2ccc(-c3cnn(CC(C)(C)O)c3)cc2N(C(=O)Oc2ccccn2)C[C@@H]1C [Example I-1320], the IC50 (BRD4 BD1) is reported as 1 to 10 µM and the IC50 (BRD4 BD2) is reported as 50 to 500 nM.
With CNC(=O)c1ccc(-c2ccc3c(c2)N(C(=O)c2ccco2)C[C@H](C)N3C(C)=O)cn1 [Example I-836] the IC50 (BRD4 BD1) was 1 to 10 µM and the IC50 (BRD4 BD2) was less than 50 nM.
